Data as given in patent US20040048237A1 (priority 2002, published 2004).
Peptide text beside a SMILES is read from it. * marks the point of attachment. Cbz = O=C(OCc1ccccc1)*

Tests used:
[1] = tested on: N2A cells
[2] = tested on: proteasome; assay type: cell-based
[3] = tested on: WtPN2A cells

For epoxomicin, the “rate of N2A cell death” value [1] was “died at the same rates”.

In the case of `CC(C)C[C@@H](C=O)NC(=O)[C@H](CC(C)C)NC(=O)[C@H](CC(C)C)NC(=O)OCc1ccccc1` [MG132] (Cbz-Leu-Leu-Leu-aldehyde), the “proteasome activity after MG132 treatment” value [2] is reported as “undetectable”, the “proteasome activity restored after removal of MG132” value [2] is reported as > 70 % of control levels and the “relative proteasome inhibiting activity” value [2] is reported as “stronger proteasome inhibiting activity than 10 μM Lactacystin”. For the same molecule, the cells died [1] was “More than 50%” and the “cell death during proteasome inhibition relative to N2A cells” value [3] was “died much more rapidly”.
